# Measurements as given in patent US12497396B2, “Nitrogen-containing heterocyclic derivatives, method therefor and application therefor as inhibitors of KRAS G12C for the treatment of cancers” (SHANGHAI HANSOH BIOMEDICAL CO., LTD., priority 2019, dated 2025).
# Assays:
# [1] = tested on: phosphorylated ERK in KRAS G12C mutant cells Mia PaCa-2; experiment: Inhibition of phosphorylated ERK level in Mia PaCa-2 cells (LANCE Ultra); type: cell-based; details: Homo sapiens, 2 hours, read-out: Mia PaCa-2 pERK IC50
# Description: As a preferred embodiment of the present disclosure, the method for detecting the inhibitory activity of phosphorylated ERK level is as follows: through cell culture, adding different concentrations of compound solutions to the cultured cells, continuing the culture for a period of time, lysing the cells, followed by centrifugation and […]; • further, the method of cell culture is: adjusting the cells to a suitable cell concentration with a complete medium, preferably the cell concentration is 1×10^6/mL, and spreading the cell suspension on a well plate for culture.
# When Mia PaCa-2 cells were cultured to the appropriate fusion level, Mia PaCa-2 cells were collected, and the cell density was adjusted to 1×10^6/mL using complete culture medium, the cell suspension was spread on a 96-well plate, 50 μL per well, and placed adherent to the wall in a 37° C., 5% CO2 incubator overnight, compound solutions with different concentrations were prepared using DMSO and complete culture medium, a solvent control was set, the compound solution was added to a 96-well plate, 25 μL per well, and placed in a 37° C., 5% CO2 incubator for 2 hours of continuous culture, the supernatant was discarded from the cell culture plate, 50 μL of lysis solution was added to each well, and lysing was performed for 30 minutes by shaking at room temperature, then the mixture was centrifuged at 1000 rpm for 1 minute, 15 μL of supernatant was transferred to 384 well plate, 5 μL of detection mixture (Eu-labeled anti-ERK1/2 (T202-Y204) antibody with final concentration of 0.5 nM and ULight labeled anti-ERK1/2 antibody with final concentration of 5 nM) was added to each well, centrifuged at 1000 rpm for 1 minute and mixed uniformly, the reaction was carried out overnight at room temperature, the plate was read with BioTek Synergy H1, and the signal values was detected at 620 nm and 665 nm emission wavelengths by time-resolved fluorescence program.
# The ratio of the signal values at 665 nm and 620 nm emission wavelength were calculated, and the ratio was used to calculate the inhibition rate, the concentration and the inhibition rate were fitted to a nonlinear regression curve using Graphpad Prism software, then the IC50 value was obtained.
# [2] = Plasma protein binding rate, human plasma; type: in vitro ADME; details: 37° C.
# Experimental: (§1) The embodiment compound was prepared into a 1 mM solution A with DMSO.
# (§2) Solution A was added to the plasma solution and prepared into a 5 μM solution B.
# (§3) • 1) 200 μL of solution B was added into the membrane. • 2) 350 μL of PBS was added to the outside of the membrane. • 3) Incubating in a 37° C. water bath for 6 hours. • 4) The samples were processed for dilution and detected by mass spectrometry.
# (§4) • Instrument: Shimadzu LC-20 AD; • Chromatographic column: phenomenex Gemiu® C18 (50*4.6 mm, 5 μM particle size); • Mobile phase: A: Acetonitrile, B: 0.1% formic acid solution 0-0.5 min: 5% A→90% A, 2.0-2.1 min: 90% A→5% A; flow rate: 0.8 mL/min; running time: 5.0 min; injection volume: 5 μL.
# (§5) • Instrument: API4000 Liquid Chromatography-Mass Spectrometry, AB, USA; • the ion source was electrospray ionization source (ESI); • the temperature of dry gas (N2) was 500° C.; • electrospray voltage was 5500V; • the detection method was positive ion detection; • the scanning mode was selective response monitoring (MRM); the scanning time was 0.1 s.
# [3] = target: T1, hERG potassium channel (Homo sapiens, UniProt Q12809); experiment: hERG potassium channel inhibitory activity (Qpatch, CHO-hERG cells); type: cell-based; details: inhibition of hERG current, multiple concentrations
# T1 construct: expressed in transfected cells; host or cells: CHO-hERG cells
# T1 sequence (Q12809 whole entry): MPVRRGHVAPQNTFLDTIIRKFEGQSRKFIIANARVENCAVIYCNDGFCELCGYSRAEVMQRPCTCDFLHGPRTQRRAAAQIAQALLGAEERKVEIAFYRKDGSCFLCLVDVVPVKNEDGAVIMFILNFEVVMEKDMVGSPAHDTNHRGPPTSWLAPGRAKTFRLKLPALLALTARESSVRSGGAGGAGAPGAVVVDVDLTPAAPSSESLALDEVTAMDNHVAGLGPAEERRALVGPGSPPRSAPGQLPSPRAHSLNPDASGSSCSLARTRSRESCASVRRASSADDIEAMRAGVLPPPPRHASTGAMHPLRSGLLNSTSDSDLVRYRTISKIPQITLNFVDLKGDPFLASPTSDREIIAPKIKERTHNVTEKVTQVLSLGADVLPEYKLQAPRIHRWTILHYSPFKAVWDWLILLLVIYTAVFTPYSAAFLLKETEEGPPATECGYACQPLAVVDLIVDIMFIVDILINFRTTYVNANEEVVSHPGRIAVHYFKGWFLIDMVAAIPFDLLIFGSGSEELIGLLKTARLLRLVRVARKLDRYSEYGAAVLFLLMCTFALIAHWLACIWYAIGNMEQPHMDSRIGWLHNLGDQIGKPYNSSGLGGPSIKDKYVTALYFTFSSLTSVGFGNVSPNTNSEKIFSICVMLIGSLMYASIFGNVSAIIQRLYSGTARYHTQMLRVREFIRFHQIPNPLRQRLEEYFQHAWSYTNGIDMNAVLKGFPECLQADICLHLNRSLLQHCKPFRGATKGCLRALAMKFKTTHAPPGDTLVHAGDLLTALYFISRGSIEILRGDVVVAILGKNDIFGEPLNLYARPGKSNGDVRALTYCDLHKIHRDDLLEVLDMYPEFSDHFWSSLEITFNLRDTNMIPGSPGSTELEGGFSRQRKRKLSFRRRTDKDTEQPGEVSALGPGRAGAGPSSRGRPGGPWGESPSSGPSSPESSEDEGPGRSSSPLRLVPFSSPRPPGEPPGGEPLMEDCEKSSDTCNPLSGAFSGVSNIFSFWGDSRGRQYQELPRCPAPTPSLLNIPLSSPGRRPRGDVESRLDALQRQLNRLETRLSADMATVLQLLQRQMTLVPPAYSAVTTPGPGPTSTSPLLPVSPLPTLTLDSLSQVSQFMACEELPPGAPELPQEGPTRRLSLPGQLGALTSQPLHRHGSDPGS
# Experimental: 7.1.1 CHO-hERG cells were cultured in a 175 cm^2 flask, when the cell density reached 60-80%, the culture medium was removed, the cells were washed with 7 mL PBS, and then digested with 3 mL Detachin.
# 7.1.2 After complete digestion, 7 mL culture medium was added to neutralize, then the mixture was centrifuged, the supernatant was aspirated, and then 5 mL culture medium was added to re-suspend, ensuring 2-5×10^6/mL of cell density.
# The process of single cell high impedance sealing and whole cell mode formation were all automatically completed by Qpatch instrument, after obtaining the whole cell recording mode, the cells were clamped at −80 mV, before giving a 5-second +40 mV depolarization stimulus, a 50 millisecond −50 mV prevoltage was given first, and then repolarized to −50 mV for 5 seconds, then returned to −80 mV. This voltage stimulation was applied every 15 seconds and recorded for 2 minutes before giving extracellular fluid recordings for 5 minutes, and then the administration process was started, the compound concentration was given from the lowest test concentration, each test concentration was given for 2.5 minutes, and the positive control compound 0.1 μM of Cisapride was given after all concentrations were continuously given. At least 3 cells (n≥3) were tested at each concentration.
# 7.4.1 20 mM of compound mother liquor was diluted with extracellular fluid, 5 μL of 20 mM compound mother liquor was added into 2495 μL of extracellular fluid and diluted 500-fold to 40 μM, and then the final concentration to be tested was obtained by sequential 3-fold serial dilutions in extracellular solution containing 0.2% DMSO.
# 7.4.2 The highest test concentration was 40 μM, in a total of 6 concentrations of 40, 13.33, 4.44, 1.48, 0.49 and 0.16 μM respectively.
# 7.4.3 The content of DMSO in the final test concentration was not more than 0.2%, and this concentration of DMSO had no effect on hERG potassium channel.
# The experimental data were analyzed by XLFit software.
# [4] = Plasma protein binding rate, mouse plasma; type: in vitro ADME; details: 37° C.
# Experimental: as §1, §2, §3, §4, §5
smiles,measurement,setting,value
"C=CC(=O)N1C[C@H](C)N(c2nc(=O)n(-c3c(SC)ccnc3C(C)C)c3nc(-c4c(O)cccc4F)c(F)cc23)C[C@H]1C (single isomer, unassigned) [Embodiment 114-1]",IC50,[1],38 nM
same,"fraction unbound at 6 h, 5 μM",[2],0.02
same,IC50,[3],> 30000 nM
same,"fraction unbound at 6 h, 5 μM",[4],0.116
"C=CC(=O)N1C[C@H](C)N(c2nc(=O)n(-c3c(SC)ccnc3C(C)C)c3nc(-c4c(N)ccc(Cl)c4F)c(Cl)cc23)C[C@H]1C (single isomer, unassigned) [Embodiment 165-1]",IC50,[1],4.2 nM
same,"fraction unbound at 6 h, 5 μM",[2],0.003
same,IC50,[3],> 30000 nM
same,"fraction unbound at 6 h, 5 μM",[4],0.061
"C=CC(=O)N1C[C@H](C)N(c2nc(=O)n(-c3c(SC)ccnc3C(C)C)c3nc(-c4c(O)cccc4F)c(Cl)cc23)C[C@H]1C (single isomer, unassigned) [Embodiment 166-1]",IC50,[1],20 nM
same,"fraction unbound at 6 h, 5 μM",[2],0.032
same,IC50,[3],> 30000 nM
same,"fraction unbound at 6 h, 5 μM",[4],0.037
